Source: US8372840B2, “Potassium channel blockers” (Xention Limited, priority 2008, dated 2013)

What was measured:
[1] = molecular target: hKv1.5 (Homo sapiens, UniProt P22460); assay: Kv1.5 Autopatch Electrophysiology (whole cell patch-clamp); type: cell-based; conditions: compound 1 μM, step to 0 mV for 1000 ms, total charge, room temperature (22-24° C.); for inhibition at 1 µM: read-out: hKv1.5 % inh.
Procedure: The external bathing solution contained (in mM): 150 NaCl, 10 KCl, […], 3 MgCl2, 1 CaCl2, 10 HEPES, pH 7.4. Patch pipettes were filled with an electrode solution of composition (in mM): 160 KCl, 0.5 MgCl2, 10 HEPES, 1 EGTA, pH 7.4 with KOH.
Compounds were dissolved in DMSO (100%) and made up in the external bather at a concentration of 1 μM. All experiments were conducted at room temperature (22-24° C.).
A cell suspension (10 ml), with a density of 100,000 cells/ml, was aliquoted into a 15 ml centrifuge tube and transferred to an incubator (37° C., 5% CO2) for approximately one hour before use. Following 60 min incubation, a tube was taken and centrifuged at 1000 rpm for 4 mins at room temperature. 9.5 ml supernatant was thence discarded, leaving a cell pellet at the bottom of the tube. The pellet was then resuspended using 100 μl of cold (4° C.), filtered (0.22 μm), 0.2% BSA/bather solution (0.02 g BSA/10 ml bather). The bottom of the tube was manually agitated gently until the solution became cloudy with cells. The 100 μl cell resuspension solution was then stored on the bench at 4° C. (using a Peltier-based temperature control device) until used.
A length of capillary glass (1B150E-4, WPI) was dipped into the cell suspension solution, such that ˜3 cm column of fluid was taken up by capillary action. A Ag/AgCl wire was dropped into the non-dipped end of the capillary also. The outside of the solution-filled end of the capillary was then dried and the capillary was loaded into the AutoPatch™
(§1) Borosilicate glass patch pipettes (from 1.5 mm OD, thin-walled filamented, GC150-TF capillary glass, Harvard) were pulled using a DMZ pipette puller (Zeitz Instruments), and were back-filled using the internal pipette solution, being careful that no bubbles remain at the tip or in the body of the pipette. Patch pipettes typically had resistances of 2.3-3.5 MΩ. Once filled, the pipette tip and a proportion of the shaft (˜15 mm) were dipped into Sigmacote (Sigma). The recording pipette was then loaded into the AutoPatch™. Automated patch-clamping was initiated by the operator, but thereafter AutoPatch.exe continued the experiment providing that pre-set conditions and criteria were satisfied.
Whole cell patch-clamp recordings were made using the AutoPatch™ rig, which incorporated an EPC9 amplifier (HEKA, Germany) under control of Pulse software (v8.54, HEKA, Germany), a motion controller with 2 translators (Newport, UK), valve controller (VF1) and a c-level suction device all at room temperature (22-24° C.). This equipment was completely under the control of AutoPatch.exe and operator intervention was only made when there was a requirement to refill the drug reservoirs or to prevent the loss of a cell due to a technical error. Cells with an Rseries greater than 18 MΩ were discounted from the experiment.
Qualification stages prior to perfusion and drug application ensured that the observed current met the criteria for the experiment. Only those cells with an IK>500 pA were used for experiments. Cells were continuously perfused with external solution at a flow rate of 1.8-2 ml/minute. […] Online analysis of the hKv1.5 current during the application of compounds was performed by the AutoPatch™ software. Voltage-step protocols and analysis of data was performed as described for conventional electrophysiology.
Electrophysiology voltage-step protocols and analysis of data was performed as follows. Data was sampled at 5 kHz, and filtered with a −3 dB bandwidth of 2.5 kHz. Cells were held at a voltage of −80 mV. Currents were evoked to a voltage step for 1000 ms in duration at 0 mV every 5 s. Currents were analysed using Pulsefit software (v8.54, HEKA, Germany), with the total charge measured during the whole of the voltage step. All other plots were produced using Igor Pro (WaveMetrics).

[2] = molecular target: T1, human Kv1.3 (Homo sapiens, UniProt P22001); assay: Kv1.3 Autopatch Electrophysiology (whole cell patch-clamp, stably transfected CHO cells); type: cell-based; conditions: compound 1 μM, step to +30 mV for 500 ms, inhibition of total charge relative to control, room temperature; for inhibition at 1 µM: CHO, read-out: hKv1.3 % inh.
T1 construct: expressed in transfected cells; host or cells: stably transfected cells grown in medium for CHO cells
Procedure: Cells stably transfected with cDNA for human Kv1.3 (in pcDNA3.1) were grown in Ex-cell 302 serum-free medium for CHO cells, supplemented with 10 μl/ml [100×] glutamine, 500 μg/ml G418 ([…]), and 1% HT supplement (50×, hypoxanthine and thymidine). Compounds were tested on these cells using the AutoPatch technology in whole cell mode.
The external bathing solution contained (in mM): 150 NaCl, 10 KCl, 1 MgCl2, 3 CaCl2, 10 HEPES, pH 7.4 with NaOH. Patch pipettes were filled with an electrode solution of composition (in mM): 100 K-Gluconate, 20 KCl, 1 MgCl2, 1 CaCl2, 10 HEPES, 11 EGTA, 5 ATP-Na2, 2 Glutathione pH 7.2 with KOH.
Compounds were dissolved in DMSO (100%) and made up in the external bather at a concentration of 1 μM immediately prior to use. All experiments were conducted at room temperature.
A cell suspension (10 ml), with a density of 6×10^6 cells, was aliquoted into a 15 ml centrifuge tube and stored at 4° C. before use. Prior to use a tube was taken and centrifuged at 1000 rpm for 4 mins at room temperature. The supernatant was then discarded, leaving a cell pellet at the bottom of the tube. The pellet was then resuspended using 1 ml of cold (4° C.), filtered (0.22 μm), 0.05% BSA/bather solution (0.05 g BSA/100 ml bather). The bottom of the tube was manually agitated followed by gentle tituration. The cell suspension was then placed in the AutoPatch™ temperature controlled cell-hotel at 14° C. and regularly titurated.
as §1, with “A length of Teflon capillary tubing was dipped into the cell suspension solution, and a column of fluid was taken up by negative pressure. The column of fluid was in electrically connectivity with a Ag/AgCl reference electrode. Borosilicate” for “Borosilicate”, “remained” for “remain”, “2.5-3.5” for “2.3-3.5”, “pipettes were placed in a multiwell array and mounted on” for “pipette was then loaded into”, “AutoPatch™ machine.” for “AutoPatch™.”, “patch-clamping and drug-application” for “patch-clamping”
Whole cell patch-clamp recordings were made using the AutoPatch™ rig, which incorporated an EPC9 or EPC10 amplifier (HEKA, Germany) under control of Pulse software (v8.54 or v8.76, HEKA, Germany), a cell applicator, automated drug application system (DAS), valve controller (VF1) and a suction device all at room temperature. This equipment was completely under the control of AutoPatch.exe and operator intervention was only made when there was a requirement to refill the bather reservoirs or to prevent the loss of a cell due to a technical error.
Qualification stages prior to perfusion and drug application ensured that the observed current met the criteria for the experiment. Cells were continuously perfused with external solution at a flow rate of ˜2 ml/minute.
Electrophysiology voltage-step protocols and analysis of data was performed as follows. Data were sampled at 5 kHz, and filtered with a −3 dB bandwidth of 2.5 kHz. Cells were held at a voltage of −80 mV. Currents were evoked by a voltage step to +30 mV for 500 ms in duration applied every 15 s. Online analysis of the hKv1.3 current during the application of compounds was performed by the Pulse (v8.54 or v8.76, HEKA, Germany), Excel (Microsoft, USA) and AutoPatch™ software, with the total charge measured during the whole of voltage step Inhibition of charge movement in the presence of drug was calculated relative to control.

T1 sequence (P22001 whole entry): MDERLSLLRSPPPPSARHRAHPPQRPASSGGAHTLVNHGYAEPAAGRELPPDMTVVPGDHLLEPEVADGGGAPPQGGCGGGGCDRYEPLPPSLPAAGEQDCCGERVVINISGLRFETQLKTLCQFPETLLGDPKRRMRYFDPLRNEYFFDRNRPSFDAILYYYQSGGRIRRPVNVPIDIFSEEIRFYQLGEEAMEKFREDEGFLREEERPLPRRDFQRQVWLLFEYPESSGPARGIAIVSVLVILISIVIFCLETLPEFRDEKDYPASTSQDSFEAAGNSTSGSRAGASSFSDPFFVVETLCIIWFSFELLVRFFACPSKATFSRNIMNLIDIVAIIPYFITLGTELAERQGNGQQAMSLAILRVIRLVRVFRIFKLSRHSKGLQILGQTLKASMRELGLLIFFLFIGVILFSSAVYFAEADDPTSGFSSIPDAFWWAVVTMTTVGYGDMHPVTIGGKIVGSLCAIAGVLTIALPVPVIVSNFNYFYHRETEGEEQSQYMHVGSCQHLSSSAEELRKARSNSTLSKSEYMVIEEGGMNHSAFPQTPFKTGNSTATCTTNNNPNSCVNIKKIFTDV
Sequence of hKv1.5 (P22460 whole entry): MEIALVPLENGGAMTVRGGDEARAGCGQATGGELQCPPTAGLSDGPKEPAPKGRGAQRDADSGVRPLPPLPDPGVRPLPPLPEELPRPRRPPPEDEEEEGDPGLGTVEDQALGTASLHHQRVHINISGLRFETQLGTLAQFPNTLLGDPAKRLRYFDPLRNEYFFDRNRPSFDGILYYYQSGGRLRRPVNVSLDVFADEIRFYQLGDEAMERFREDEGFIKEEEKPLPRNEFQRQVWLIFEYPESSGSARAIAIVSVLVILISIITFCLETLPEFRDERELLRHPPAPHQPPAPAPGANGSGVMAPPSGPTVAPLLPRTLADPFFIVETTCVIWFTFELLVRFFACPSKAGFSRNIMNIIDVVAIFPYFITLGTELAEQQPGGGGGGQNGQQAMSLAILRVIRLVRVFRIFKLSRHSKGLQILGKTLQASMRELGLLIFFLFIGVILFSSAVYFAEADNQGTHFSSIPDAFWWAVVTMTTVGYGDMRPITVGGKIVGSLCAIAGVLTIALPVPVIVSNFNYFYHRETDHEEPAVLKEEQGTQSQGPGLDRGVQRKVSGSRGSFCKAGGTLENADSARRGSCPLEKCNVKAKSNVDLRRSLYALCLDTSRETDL

| hKv1.5 % inh. [1] | hKv1.3 % inh. [2] | inhibition at 1 µM [1] | inhibition at 1 µM [2] | Compound |
| --- | --- | --- | --- | --- |
| 95% | 99% |  |  | 1-Methyl-1H-pyrazole-3-sulfonic acid (4-chloro-benzyl)-(3-morpholin-4-yl-phenyl)-amide [Example 40] |
| 77% | 99% |  |  | 1-Methyl-1H-pyrazole-3-sulfonic acid (4-chloro-benzyl)-[3-(2-oxo-imidazolidin-1-yl)-phenyl]-amide [Example 42] |
| 71% | 96% |  |  | 1-Methyl-1H-pyrazole-3-sulfonic acid (4-chloro-benzyl)-[3-(2-oxo-pyrrolidin-1-yl)-phenyl]-amide [Example 38] |
| 33% | 92% |  |  | 1-Methyl-1H-pyrazole-3-sulfonic acid benzyl-(3-morpholin-4-yl-phenyl)-amide [Example 41] |
| 56% | 65% |  |  | 4-Methyl-3,4-dihydro-2H-benzo[1,4]oxazine-7-sulfonic acid benzyl-[3-(2-oxo-pyrrolidin-1-yl)-phenyl]-amide [Example 18] |
|  |  | 66% | 86% | O=C1NCCN1c1cccc(N(Cc2ccccc2)S(=O)(=O)c2ccccc2)c1 [Example 1, N-Benzyl-N-[3-(2-oxo-imidazolidin-1-yl)-phenyl]-benzenesulfonamide] |
|  |  | 62% | 76% | O=S(=O)(c1ccccc1)N(Cc1ccccc1)c1cccc(N2CCOCC2)c1 [Example 2, N-Benzyl-N-(3-morpholin-4-yl-phenyl)-benzenesulfonamide] |
|  |  | 73% | 90% | Cn1cncc1C(=O)Nc1cccc(N(Cc2ccccc2)S(=O)(=O)c2ccccc2)c1 [Example 3, 3-Methyl-3H-imidazole-4-carboxylic acid [3-(benzenesulfonyl-benzyl-amino)-phenyl]-amide] |
|  |  | 91% | 88% | O=S(=O)(c1ccccc1)N(Cc1ccccc1)c1cccc(N2CCN(c3ccccc3)CC2)c1 [Example 5, N-Benzyl-N-[3-(4-phenyl-piperazin-1-yl)-phenyl]-benzenesulfonamide] |
|  |  | 72% | 91% | Cn1ccc(S(=O)(=O)N(Cc2ccc(Cl)cc2)c2cccc(OCc3ccccn3)c2)n1 [Example 6, 1-Methyl-1H-pyrazole-3-sulfonic acid (4-chloro-benzyl)-[3-(pyridin-2-ylmethoxy)-phenyl]-amide] |
|  |  | 93% | 99% | CNC(=O)COc1cccc(N(Cc2ccc(Cl)cc2)S(=O)(=O)c2ccn(C)n2)c1 [Example 7, 2-{3-[(4-Chloro-benzyl)-(1-methyl-1H-pyrazole-3-sulfonyl)-amino]-phenoxy}-N-methyl-acetamide] |
|  |  | 77% | 86% | O=C(Cc1ccccc1)Nc1cccc(N(Cc2ccccc2)S(=O)(=O)c2ccccc2)c1 [Example 11, N-[3-(Benzenesulfonyl-benzyl-amino)-phenyl]-2-phenyl-acetamide] |
|  |  | 58% | 85% | COCC(=O)Nc1cccc(N(Cc2ccccc2)S(=O)(=O)c2ccccc2)c1 [Example 12, N-[3-(Benzenesulfonyl-benzyl-amino)-phenyl]-2-methoxy-acetamide] |
|  |  | 77% | 94% | O=S(=O)(c1ccccc1)N(Cc1ccccc1)c1cccc(N2CCNC(c3ccccc3)C2)c1 (stereo not shown) [Example 14, N-Benzyl-N-[3-(3-phenyl-piperazin-1-yl)-phenyl]-benzenesulfonamide] |
|  |  | 42% | 75% | Cc1nc(S(=O)(=O)N(Cc2ccccc2)c2cccc(N3CCOCC3)c2)cn1C [Example 19, 1,2-Dimethyl-1H-imidazole-4-sulfonic acid benzyl-(3-morpholin-4-yl-phenyl)-amide] |
|  |  |  | 72% | Cn1ccc(S(=O)(=O)N(Cc2ccccc2)c2cccc(N3CCNC3=O)c2)n1 [Example 43, 1-Methyl-1H-pyrazole-3-sulfonic acid benzyl-[3-(2-oxo-imidazolidin-1-yl)-phenyl]-amide] |
|  |  | 91% | 100% | O=C1NCCN1c1cccc(N(Cc2ccc(Cl)cc2)S(=O)(=O)c2ccccc2)c1 [Example 46, N-(4-Chloro-benzyl)-N-[3-(2-oxo-imidazolidin-1-yl)-phenyl]-benzenesulfonamide] |
|  |  | 99% | 95% | Cn1ccc(S(=O)(=O)N(Cc2ccc(Cl)cc2)c2cccc(OCC(=O)Nc3ccccn3)c2)n1 [Example 49, 2-{3-[(4-Chloro-benzyl)-(1-methyl-1H-pyrazole-3-sulfonyl)-amino]-phenoxy}-N-pyridin-2-yl-acetamide] |

| Compound | hKv1.5 % inh. [1] | hKv1.3 % inh. [2] | inhibition at 1 µM [1] | inhibition at 1 µM [2] |
| --- | --- | --- | --- | --- |
| 1-Methyl-1H-imidazole-4-sulfonic acid (4-chloro-benzyl)-(3-morpholin-4-yl-phenyl)-amide [Example 36] | 44% | 83% |  |  |
